Results published in patent US8916565B2, “Pyrrolopyrazine-spirocyclic piperidine amides as modulators of ion channels” (priority 2011, dated 2014).

What follows are compounds tested against human NaV subtype, like NaV 1.7 (Homo sapiens, UniProt Q15858) (assay: E-VIPR optical membrane potential assay with electrical stimulation). Details: active against one or more sodium channels; Table 3 does not name the assay or NaV subtype; read-out: Binned Activity Data (IC50).
Type: cell-based
Source text: Assays for Detecting and Measuring NaV Inhibition Properties of Compound E-VIPR Optical Membrane Potential Assay Method with Electrical Stimulation
Sodium channels are voltage-dependent proteins that can be activated by inducing membrane voltage changes by applying electric fields. The electrical stimulation instrument and methods of use are described in Ion Channel Assay Methods PCT/US01/21652, herein incorporated by reference and are referred to as E-VIPR. The instrument comprises a microtiter plate handler, an optical system for exciting the coumarin dye while simultaneously recording the coumarin and oxonol emissions, a waveform generator, a current- or voltage-controlled amplifier, and a device for inserting electrodes in well. Under integrated computer control, this instrument passes user-programmed electrical stimulus protocols to cells within the wells of the microtiter plate.
24 hours before the assay on E-VIPR, HEK cells expressing human NaV subtype, like NaV 1.7, are seeded in 384-well poly-lysine coated plates at 15,000-20,000 cells per well. Other subtypes are performed in an analogous mode in a cell line expressing the NaV of interest. HEK cells are grown in media (exact composition is specific to each cell type and NaV subtype) supplemented with 10% FBS (Fetal Bovine Serum, qualified; GibcoBRL #16140-071) and 1% Pen-Strep (Penicillin-Streptomycin; GibcoBRL #15140-122). Cells are grown in vented cap flasks, in 90% humidity and 10% CO2, to 100% confluence. They are usually split by trypsinization 1:10 or 1:20, depending on scheduling needs, and grown for 2-3 days before the next split.
Bath 1 buffer. Glucose 10 mM (1.8 g/L), Magnesium Chloride (Anhydrous), 1 mM (0.095 g/L), Calcium Chloride, 2 mM (0.222 g/L), HEPES 10 mM (2.38 g/L), Potassium Chloride, 4.5 mM (0.335 g/L), Sodium Chloride 160 mM (9.35 g/L).
Hexyl Dye Solution: Bath 1 Buffer+0.5% β-cyclodextrin (make this prior to use, Sigma #C4767), 8 μM CC2-DMPE+2.5 μM DiSBAC6(3). To make the solution Add volume of 10% Pluronic F127 stock equal to volumes of CC2-DMPE+DiSBAC6(3). The order of preparation is first mix Pluronic and CC2-DMPE, then add DiSBAC6(3) while vortexing, then add Bath 1+β-Cyclodextrin.
1) Pre-spot compounds (in neat DMSO) into compound plates. Vehicle control (neat DMSO), the positive control (20 mM DMSO stock tetracaine, 125 μM final in assay) and test compounds are added to each well at 160× desired final concentration in neat DMSO. Final compound plate volume will be 80 μL (80-fold intermediate dilution from 1 μL DMSO spot; 160-fold final dilution after transfer to cell plate). Final DMSO concentration for all wells in assay is 0.625%.
2) Prepare Hexyl Dye Solution.
3) Prepare cell plates. On the day of the assay, medium is aspirated and cells are washed three times with 100 μL of Bath 1 Solution, maintaining 25 μL residual volume in each well.
4) Dispense 25 μL per well of Hexyl Dye Solution into cell plates. Incubate for 20-35 minutes at room temp or ambient conditions.
5) Dispense 80 μL per well of Bath 1 into compound plates. Acid Yellow-17 (1 mM) is added and Potassium Chloride can be altered from 4.5 to 20 mM depending on the NaV subtype and assay sensitivity.
6) Wash cell plates three times with 100 μL per well of Bath1, leaving 25 μL of residual volume. Then transfer 25 uL per well from Compound Plates to Cell Plates. Incubate for 20-35 minutes at room temp/ambient condition
7) Read Plate on E-VIPR. Use the current-controlled amplifier to deliver stimulation wave pulses for typically 9 seconds and a scan rate of 400 Hz. A pre-stimulus recording is performed for 0.5 seconds to obtain the un-stimulated intensities baseline. The stimulatory waveform is applied for 9 seconds followed by 0.5 seconds of post-stimulation recording to examine the relaxation to the resting state.

Chain of human NaV subtype, like NaV 1.7 (Q15858 whole entry): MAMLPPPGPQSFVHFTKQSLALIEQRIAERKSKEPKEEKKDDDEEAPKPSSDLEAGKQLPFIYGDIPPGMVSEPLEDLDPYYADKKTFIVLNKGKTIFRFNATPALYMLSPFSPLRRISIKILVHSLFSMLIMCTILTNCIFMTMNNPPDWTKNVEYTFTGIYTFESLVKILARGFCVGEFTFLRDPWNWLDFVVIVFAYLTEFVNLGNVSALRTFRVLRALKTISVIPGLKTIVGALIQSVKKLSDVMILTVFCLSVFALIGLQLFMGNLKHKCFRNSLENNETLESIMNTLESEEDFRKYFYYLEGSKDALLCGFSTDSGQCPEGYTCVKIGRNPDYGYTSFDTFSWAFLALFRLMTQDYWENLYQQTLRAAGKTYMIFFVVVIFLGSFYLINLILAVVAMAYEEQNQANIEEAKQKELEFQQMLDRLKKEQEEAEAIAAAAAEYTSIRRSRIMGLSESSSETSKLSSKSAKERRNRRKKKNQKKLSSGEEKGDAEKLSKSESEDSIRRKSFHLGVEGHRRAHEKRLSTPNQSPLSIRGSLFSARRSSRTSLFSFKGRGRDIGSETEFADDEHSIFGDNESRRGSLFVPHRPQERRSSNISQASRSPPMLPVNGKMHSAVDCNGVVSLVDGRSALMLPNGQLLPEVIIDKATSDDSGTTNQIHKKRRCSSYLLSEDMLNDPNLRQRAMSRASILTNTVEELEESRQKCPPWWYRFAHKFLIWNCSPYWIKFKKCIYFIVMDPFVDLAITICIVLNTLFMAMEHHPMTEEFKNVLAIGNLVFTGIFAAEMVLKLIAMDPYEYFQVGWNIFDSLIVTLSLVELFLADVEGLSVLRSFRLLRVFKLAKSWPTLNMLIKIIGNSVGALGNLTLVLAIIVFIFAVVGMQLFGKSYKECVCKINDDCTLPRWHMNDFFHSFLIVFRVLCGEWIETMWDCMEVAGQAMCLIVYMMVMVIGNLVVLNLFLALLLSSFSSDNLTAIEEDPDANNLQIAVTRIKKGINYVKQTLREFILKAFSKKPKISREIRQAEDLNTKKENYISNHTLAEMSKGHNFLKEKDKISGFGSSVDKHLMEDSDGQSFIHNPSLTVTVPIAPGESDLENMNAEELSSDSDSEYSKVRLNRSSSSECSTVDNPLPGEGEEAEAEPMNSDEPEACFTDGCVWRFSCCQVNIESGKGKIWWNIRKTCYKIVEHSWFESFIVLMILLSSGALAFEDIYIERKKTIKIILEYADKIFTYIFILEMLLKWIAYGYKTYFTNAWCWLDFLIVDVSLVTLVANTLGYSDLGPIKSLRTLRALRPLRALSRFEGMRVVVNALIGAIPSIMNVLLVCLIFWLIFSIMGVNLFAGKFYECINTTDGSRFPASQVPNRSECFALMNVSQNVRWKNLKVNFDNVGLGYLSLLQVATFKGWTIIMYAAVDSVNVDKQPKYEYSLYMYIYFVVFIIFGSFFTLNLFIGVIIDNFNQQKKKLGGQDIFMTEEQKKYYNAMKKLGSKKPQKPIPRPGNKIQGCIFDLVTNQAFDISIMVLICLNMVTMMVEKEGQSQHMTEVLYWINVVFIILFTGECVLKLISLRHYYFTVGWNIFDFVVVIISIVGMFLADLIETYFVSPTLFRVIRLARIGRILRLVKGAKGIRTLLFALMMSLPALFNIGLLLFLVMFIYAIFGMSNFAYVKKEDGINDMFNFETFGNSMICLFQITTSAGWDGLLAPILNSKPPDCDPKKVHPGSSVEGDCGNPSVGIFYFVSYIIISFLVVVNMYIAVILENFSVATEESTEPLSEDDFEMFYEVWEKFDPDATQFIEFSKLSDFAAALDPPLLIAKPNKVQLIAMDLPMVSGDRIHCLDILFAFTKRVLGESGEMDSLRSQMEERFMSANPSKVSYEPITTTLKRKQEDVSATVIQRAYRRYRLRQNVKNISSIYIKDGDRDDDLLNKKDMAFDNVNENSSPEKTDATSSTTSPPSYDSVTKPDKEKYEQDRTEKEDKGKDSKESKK

Row | Compound | IC50 [nM]
1 | Cc1cc(C(=O)N2CCC3(CC2)c2ccc(C(=O)C(F)(F)F)n2CCN3C)ccc1Cl [Compound 1] | 2000 to 5000
2 | Cc1cc(C(=O)N2CCC3(CC2)c2ccc(C(F)(F)F)n2CCN3C)ccc1S(=O)(=O)C(C)C [Compound 2] | ≤ 2000
3 | COc1cc(C(=O)N2CC[C@]3(c4ccc(C(F)(F)F)n4CCN3C)[C@H](F)C2)ccc1OC(C)C [Compound 3] | > 5000
4 | COc1cc(C(=O)N2CCC3(CC2)NCC(=O)n2c(C(F)(F)F)ccc23)ccc1OC(C)C [Compound 4] | > 5000
5 | CN1CCn2c(C(=O)C(F)(F)F)ccc2C12CCN(C(=O)c1ccc(OC(C)(C)C)cc1)CC2 [Compound 6] | ≤ 2000
6 | CNS(=O)(=O)c1ccc(C(=O)N2CCC3(CC2)c2ccc(C(F)(F)F)n2CCN3C)cc1C [Compound 7] | ≤ 2000
7 | CC1CN(C)C2(CCN(C(=O)c3ccc(COCCC(F)(F)F)cc3)CC2)c2ccc(C(=O)C(F)(F)F)n21 (centres unmarked) [Compound 8] | ≤ 2000
8 | COc1cc(C(=O)N2CCC3(CC2)c2c(Cl)cc(C(F)(F)F)n2CCN3C)ccc1OC(C)C [Compound 9] | ≤ 2000
9 | Cc1cc(C(=O)N2CCC3(CC2)c2ccc(Cl)n2CCN3C)ccc1C(C)(C)O [Compound 10] | ≤ 2000
10 | CC(C)Oc1ccc(C(=O)N2CCC3(CC2)c2ccc(CC(F)(F)F)n2CCN3C)cc1Cl [Compound 11] | ≤ 2000
11 | COc1ccc(C(=O)N2CCC3(CC2)c2ccc(C(=O)C(F)(F)F)n2C(C)CN3C)nc1C (centres unmarked) [Compound 15] | ≤ 2000
12 | COc1cc(C(=O)N2CCC3(CC2)c2ccc(C(=O)C(F)(F)F)n2CCN3C)ccc1COCC(F)(F)F [Compound 17] | ≤ 2000
13 | CCCCCc1ccc(C(=O)N2CCC3(CC2)c2ccc(Cl)n2CCN3C)cc1 [Compound 20] | ≤ 2000
14 | CN1CCn2c(C(F)(F)F)cc(F)c2C12CCN(C(=O)c1ccc(S(=O)(=O)C(F)F)cc1)CC2 [Compound 23] | ≤ 2000
15 | CCNS(=O)(=O)c1ccc(C(=O)N2CCC3(CC2)c2ccc(Cl)n2CCN3C)cc1 [Compound 24] | 2000 to 5000
16 | CC(C)Oc1ccc(C(=O)N2CCC3(CC2)c2ccc(Cl)n2CCN3C)cc1F [Compound 25] | > 5000
17 | CN1CCn2c(C(F)(F)F)ccc2C12CCN(C(=O)c1ccccc1Oc1ccccc1)CC2 [Compound 27] | ≤ 2000
18 | COc1cc(C(=O)N2CCC3(CC2)c2ccc(C(F)(F)F)n2C[C@H](C)N3C)ccc1OC(C)C [Compound 29] | ≤ 2000
19 | CN1CCn2c(C(=O)C3CC3)ccc2C12CCN(C(=O)c1ccc(O)c(Cl)c1)CC2 [Compound 31] | 2000 to 5000
20 | CN1CCn2c(C(=O)C(F)(F)F)ccc2C12CCN(C(=O)c1ccc(S(=O)(=O)NC3CC3)cc1)CC2 [Compound 33] | ≤ 2000
21 | CCCCOc1ccc(C(=O)N2CCC3(CC2)c2ccc(C(C)=O)n2CCN3C)cc1 [Compound 34] | ≤ 2000
22 | COCC#Cc1ccc(C(=O)N2CCC3(CC2)c2ccc(Cl)n2CCN3C)cc1F [Compound 36] | > 5000
23 | CC(C)Oc1ccc(C(=O)N2CCC3(CC2)NC(C)(C)Cn2c(C(F)(F)F)ccc23)cc1Cl [Compound 37] | ≤ 2000
24 | CC[C@H](C)Oc1ccc(C(=O)N2CCC3(CC2)c2ccc(Cl)n2CCN3C)cc1OC [Compound 38] | 2000 to 5000
25 | CC(C)Oc1ccc(C(=O)N2CCC3(CC2)c2ccc(C(=O)C(F)(F)F)n2CCN3C)cc1F [Compound 40] | ≤ 2000
26 | COc1cccc(C(=O)N2CCC3(CC2)c2ccc(C(F)(F)F)n2CCN3C)c1 [Compound 42] | > 5000
27 | CN1CCn2c(C(=O)C(F)(F)F)ccc2C12CCN(C(=O)c1ccc(OCC3CC3)c(F)c1)CC2 [Compound 46] | ≤ 2000
28 | COc1cc(C(=O)N2CCC3(CC2)c2cc(C(F)(F)F)c(C(F)(F)F)n2CCN3C)ccc1OC(C)C [Compound 48] | ≤ 2000
29 | CN1CCn2c(C(F)(F)F)ccc2C12CCN(C(=O)c1ccnc3ccccc13)CC2 [Compound 49] | ≤ 2000
30 | CC(C)c1cc(C(=O)N2CCC3(CC2)c2ccc(C(=O)C(F)(F)F)n2CCN3C)ccc1O [Compound 50] | ≤ 2000

The remaining lines, values ahead:

Row | IC50 [nM] | Compound
31 | ≤ 2000 | CC(=O)c1ccc2n1CCN(C)C21CCN(C(=O)c2ccc(CC(C)C)cc2)CC1 [Compound 5]
32 | ≤ 2000 | CN1CCn2c(C(=O)C(F)(F)F)ccc2C12CCN(C(=O)c1ccc(C(C)(C)C)cc1)CC2 [Compound 12]
33 | ≤ 2000 | CNS(=O)(=O)c1ccc(C(=O)N2CCC3(CC2)c2ccc(C(F)(F)C(F)(F)F)n2CCN3C)cc1C [Compound 13]
34 | ≤ 2000 | COc1ccc(C(=O)N2CCC3(CC2)c2ccc(C(=O)C(F)(F)F)n2C[C@H](C)N3C)cc1C [Compound 14]
35 | 2000 to 5000 | CC(C)Oc1ccc(C(=O)N2CCC3(CC2)c2ccc(C(=O)C(F)(F)F)n2C(C)(C)CN3C)cc1F [Compound 16]
36 | ≤ 2000 | CCCOc1ccc(C(=O)N2CCC3(CC2)c2c(F)cc(C(F)(F)F)n2CCN3C)cc1 [Compound 18]
37 | ≤ 2000 | CN1CCn2c(C(=O)C3(C)CC3)ccc2C12CCN(C(=O)c1ccc(O)c(Cl)c1)CC2 [Compound 19]
38 | > 5000 | CN1CCn2c(C(F)(F)F)ccc2C12CCN(C(=O)c1cnn3c(C(F)F)cc(C4CC4)nc13)CC2 [Compound 21]
39 | > 5000 | CC(C)Oc1ccc(C(=O)N2CCC3(CC2)c2ccc(C(F)(F)F)n2CCN3C)nc1 [Compound 22]
40 | 2000 to 5000 | CCc1ccc(C(=O)N2CCC3(CC2)c2ccc(C(=O)C(F)(F)F)n2CCN3C)cc1 [Compound 26]
41 | ≤ 2000 | Cc1cc(C(=O)N2CCC3(CC2)c2ccc(C(F)(F)F)n2CCN3C)ccc1S(=O)(=O)NC1CC1 [Compound 28]
42 | > 5000 | CC(=O)c1cc2n(c1)CC(C)(C)NC21CCN(C(=O)c2ccc(OC(C)C)c(Cl)c2)CC1 [Compound 30]
43 | ≤ 2000 | CN1CCn2c(Cl)ccc2C12CCN(C(=O)c1ccc(OCC(C)(C)C)cc1)CC2 [Compound 32]
44 | ≤ 2000 | Cc1cc(C(=O)N2CCC3(CC2)c2cccn2CCN3Cc2ccccc2)ccc1OC(C)C [Compound 39]
45 | ≤ 2000 | CC1(C)Cn2c(C(=O)C(F)(F)F)ccc2C2(CCN(C(=O)c3ccc(COCC(F)(F)F)cc3)CC2)N1 [Compound 41]
46 | > 5000 | O=C(c1ccccc1Oc1ccccc1)N1CCC2(CC1)NCCn1c(C(F)(F)F)ccc12 [Compound 43]
47 | 2000 to 5000 | CC(C)CNc1ncccc1C(=O)N1CCC2(CC1)c1ccc(C(F)(F)F)n1CCN2C [Compound 44]
48 | ≤ 2000 | CN1CCn2c(C(=O)C(F)(F)F)ccc2C12CCN(C(=O)c1ccc(OCC3CC3)cc1)CC2 [Compound 47]
49 | ≤ 2000 | CC(C)Oc1ccc(C(=O)N2CCC3(CC2)c2ccc(C(=O)C(F)(F)F)n2CCN3C)cc1C#N [Compound 51]
50 | > 5000 | CC(C)Oc1ccc(C(=O)N2CCC3(CC2)c2cc(C(=O)C(F)(F)F)cn2C(C)(C)CN3C)c(F)c1 [Compound 52]
51 | ≤ 2000 | CN1CCn2c(C(=O)C3(C)CC3)ccc2C12CCN(C(=O)c1ccc(S(=O)(=O)NC3CC3)cc1)CC2 [Compound 53]
52 | 2000 to 5000 | CCC(C)(C)c1ccc(C(=O)N2CCC3(CC2)c2ccc(C(=O)C(F)(F)F)n2CCN3C)cc1 [Compound 54]
53 | ≤ 2000 | Cc1cc(C(=O)N2CCC3(CC2)c2ccc(C(=O)C(F)(F)F)n2CCN3C)ccc1-c1ccccc1 [Compound 55]
54 | ≤ 2000 | COc1cc(C(=O)N2CCC3(CC2)c2ccc(C(C)=O)n2CCN3C)ccc1C(C)(C)C [Compound 56]
55 | ≤ 2000 | CC(C)Oc1ccc(C(=O)N2CCC3(CC2)N[C@H](C)Cn2c(C(F)(F)F)ccc23)cc1F [Compound 57]
56 | ≤ 2000 | COc1ccc(C(=O)N2CCC3(CC2)c2ccc(C(=O)C(C)(C)C)n2CCN3C)cc1Cl [Compound 58]
